Measured values: ChEMBL document CHEMBL1201861, “Genomics of Drug Sensitity in Cancer screening data, Wellcome Trust Sanger Institute”
pIC50: −log10 of the molar value.

Key:
Experiment in all cases: cells
Settings in all cases: Homo sapiens
TE-12 = type: functional, cell-based;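 note: growth inhibition of TE-12 cells, read out by a cell viability assay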
Description: SANGER: Inhibition of human TE-12 cell growth in a cell viability assay.

KALS-1 = type: functional, cell-based;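 note: growth inhibition of KALS-1 cells, determined with a cell viability assay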
Description: SANGER: Inhibition of human KALS-1 cell growth in a cell viability assay.

IST-SL1 = type: functional, cell-based;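 note: growth inhibition of human IST-SL1 cells, read out with a cell viability assay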
Description: SANGER: Inhibition of human IST-SL1 cell growth in a cell viability assay.

COLO-824 = type: functional, cell-based
Description: SANGER: Inhibition of human COLO-824 cell growth in a cell viability assay.

SW872 = type: functional, cell-based;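 note: growth inhibition of SW872 cells, read out by a viability assay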
Description: SANGER: Inhibition of human SW872 cell growth in a cell viability assay.

DSH1 = type: functional, cell-based;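 note: growth inhibition of human DSH1 cells, measured with a cell viability readout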
Description: SANGER: Inhibition of human DSH1 cell growth in a cell viability assay.

OS-RC-2 = type: functional, cell-based;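 note: growth inhibition of human OS-RC-2 cells, measured by a cell viability assay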
Description: SANGER: Inhibition of human OS-RC-2 cell growth in a cell viability assay.

NB13 = type: functional, cell-based;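 note: cell viability readout measuring growth inhibition of human NB13 cells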
Description: SANGER: Inhibition of human NB13 cell growth in a cell viability assay.

SW684 = type: functional, cell-based;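 note: growth inhibition of human SW684 cells, measured by a cell viability assay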
Description: SANGER: Inhibition of human SW684 cell growth in a cell viability assay.

OCUB-M = type: functional, cell-based;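 note: growth inhibition of the cancer cell line, read out through a cell viability assay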
Description: SANGER: Inhibition of human OCUB-M cell growth in a cell viability assay.

GAK = type: functional, cell-based;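 note: cell growth inhibition read out by a cell viability assay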
Description: SANGER: Inhibition of human GAK cell growth in a cell viability assay.

NCI-H510A = type: functional, cell-based;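 note: growth inhibition of NCI-H510A cells, read out with a cell viability assay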
Description: SANGER: Inhibition of human NCI-H510A cell growth in a cell viability assay.

SK-N-DZ = type: functional, cell-based;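 note: growth inhibition of the cancer cell line, read out through a viability assay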
Description: SANGER: Inhibition of human SK-N-DZ cell growth in a cell viability assay.

EOL1 = type: functional, cell-based;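 note: growth inhibition of EoL-1 cells, read out by a cell viability assay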
Description: SANGER: Inhibition of human EoL-1-cell cell growth in a cell viability assay.

KU812 cell line = type: functional, cell-based;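 note: growth inhibition of KU812 cells, read out with a cell viability assay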
Description: SANGER: Inhibition of human KU812 cell growth in a cell viability assay.

MZ2-MEL = type: functional, cell-based;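 note: growth inhibition of MZ2-MEL cells read out with a cell viability assay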
Description: SANGER: Inhibition of human MZ2-MEL cell growth in a cell viability assay.

CAS-1 = type: functional, cell-based;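 note: growth inhibition of CAS-1 cells, measured with a cell viability assay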
Description: SANGER: Inhibition of human CAS-1 cell growth in a cell viability assay.

SK-UT-1 = type: functional, cell-based;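 note: growth inhibition of SK-UT-1 cells, measured by a cell viability assay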
Description: SANGER: Inhibition of human SK-UT-1 cell growth in a cell viability assay.

DEL = type: functional, cell-based;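 note: growth inhibition of the human DEL cell line, read out with a cell viability assay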
Description: SANGER: Inhibition of human DEL cell growth in a cell viability assay.

NCI-H1092 = type: functional, cell-based;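 note: cell growth inhibition measured with a cell viability assay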
Description: SANGER: Inhibition of human NCI-H1092 cell growth in a cell viability assay.

SNB-75 = type: functional, cell-based;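 note: cell viability assay measuring growth inhibition of human SNB-75 cells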
Description: SANGER: Inhibition of human SNB75 cell growth in a cell viability assay.

COLO-829 = type: functional, cell-based
Description: SANGER: Inhibition of human COLO-829 cell growth in a cell viability assay.

no-10 = type: functional, cell-based;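 note: growth inhibition of no-10 cells, read out with a cell viability assay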
Description: SANGER: Inhibition of human no-10 cell growth in a cell viability assay.

RCC10RGB = type: functional, cell-based;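 note: growth inhibition of human RCC10RGB cells, read out by a cell viability assay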
Description: SANGER: Inhibition of human RCC10RGB cell growth in a cell viability assay.

MPP-89 = type: functional, cell-based;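 note: growth inhibition of human MPP-89 cells, read out with a cell viability assay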
Description: SANGER: Inhibition of human MPP-89 cell growth in a cell viability assay.

NCI-H226 = type: functional, cell-based;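 note: cell viability read-out used to gauge growth inhibition of the cells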
Description: SANGER: Inhibition of human NCI-H226 cell growth in a cell viability assay.

NCI-H82 = type: functional, cell-based;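 note: growth inhibition of NCI-H82 cells, measured with a cell viability readout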
Description: SANGER: Inhibition of human NCI-H82 cell growth in a cell viability assay.

ATN-1 = type: functional, cell-based;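 note: growth inhibition of human ATN-1 cells, read out with a cell viability assay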
Description: SANGER: Inhibition of human ATN-1 cell growth in a cell viability assay.

HCC1187 = type: functional, cell-based;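 note: growth inhibition of HCC1187 cells, read out with a cell viability assay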
Description: SANGER: Inhibition of human HCC1187 cell growth in a cell viability assay.

SHP77 = type: functional, cell-based, SHP-77;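 note: growth inhibition of human SHP-77 cells measured by a cell viability assay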
Description: SANGER: Inhibition of human SHP-77 cell growth in a cell viability assay.

HT-144 = type: functional, cell-based
Description: SANGER: Inhibition of human HT-144 cell growth in a cell viability assay.

ETK-1 = type: functional, cell-based;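 note: growth inhibition of human ETK-1 cells, read out with a cell viability assay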
Description: SANGER: Inhibition of human ETK-1 cell growth in a cell viability assay.

RS4-11 = type: functional, cell-based;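 note: growth inhibition of RS4-11 cells, read out by a cell viability assay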
Description: SANGER: Inhibition of human RS4-11 cell growth in a cell viability assay.

DMS-114 = type: functional, cell-based
MFM-223 = type: functional, cell-based
Description: SANGER: Inhibition of human MFM-223 cell growth in a cell viability assay.

TGBC1TKB = type: functional, cell-based;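 note: growth inhibition of TGBC1TKB cells, read out by a cell viability assay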
Description: SANGER: Inhibition of human TGBC1TKB cell growth in a cell viability assay.

CTV-1 = type: functional, cell-based;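 note: growth inhibition of the cell line, read out with a cell viability assay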
Description: SANGER: Inhibition of human CTV-1 cell growth in a cell viability assay.

NCI-H720 = type: functional, cell-based;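 note: growth inhibition of human NCI-H720 cells determined by a cell viability assay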
Description: SANGER: Inhibition of human NCI-H720 cell growth in a cell viability assay.

NH-12 = type: functional, cell-based;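 note: growth inhibition of NH-12 cells, read out with a cell viability assay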
Description: SANGER: Inhibition of human NH-12 cell growth in a cell viability assay.

NCI-H23 = type: functional, cell-based;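 note: cell viability assay measuring growth inhibition of NCI-H23 cells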
Description: SANGER: Inhibition of human NCI-H23 cell growth in a cell viability assay.

A3-KAW = type: functional, cell-based;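 note: growth inhibition of human A3-KAW cells, read out with a cell viability assay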
Description: SANGER: Inhibition of human A3-KAW cell growth in a cell viability assay.

OVCAR-4 = type: functional, cell-based;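 note: growth inhibition of human OVCAR-4 cells, measured with a cell viability assay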
Description: SANGER: Inhibition of human OVCAR-4 cell growth in a cell viability assay.

NCI-H1770 = type: functional, cell-based;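 note: growth inhibition of NCI-H1770 cells determined with a viability readout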
Description: SANGER: Inhibition of human NCI-H1770 cell growth in a cell viability assay.

RH-1 = type: functional, cell-based;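 note: growth inhibition of human RH-1 cells, read out with a cell viability assay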
Description: SANGER: Inhibition of human RH-1 cell growth in a cell viability assay.

SCH = type: functional, cell-based;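 note: growth inhibition of human SCH cells, read out in a cell viability assay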
Description: SANGER: Inhibition of human SCH cell growth in a cell viability assay.

MC116 = type: functional, cell-based;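 note: growth inhibition of MC116 cells, read out with a cell viability assay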
Description: SANGER: Inhibition of human MC116 cell growth in a cell viability assay.

EW-24 = type: functional, cell-based;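 note: human EW-24 cancer cell line, growth inhibition read out via a cell viability assay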
Description: SANGER: Inhibition of human EW-24 cell growth in a cell viability assay.

OCI-AML2 = type: functional, cell-based;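 note: growth inhibition of OCI-AML2 cells, read out with a cell viability assay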
Description: SANGER: Inhibition of human OCI-AML2 cell growth in a cell viability assay.

JVM-2 = type: functional, cell-based;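 note: growth inhibition of JVM-2 cells determined by a cell viability assay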
Description: SANGER: Inhibition of human JVM-2 cell growth in a cell viability assay.

A498 = type: functional, cell-based;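 note: growth inhibition of human A498 cells, read out with a cell viability assay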
Description: SANGER: Inhibition of human A498 cell growth in a cell viability assay.

HAL-01 = type: functional, cell-based;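 note: growth inhibition of human HAL-01 cells, read out with a cell viability assay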
Description: SANGER: Inhibition of human HAL-01 cell growth in a cell viability assay.

NCI-H1395 = type: functional, cell-based;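 note: cell viability assay read-out quantifying reduced proliferation of human NCI-H1395 cells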
Description: SANGER: Inhibition of human NCI-H1395 cell growth in a cell viability assay.

HD-MY-Z = type: functional, cell-based;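 note: growth inhibition of HD-MY-Z cells, read out with a cell viability assay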
Description: SANGER: Inhibition of human HD-MY-Z cell growth in a cell viability assay.

LB2518-MEL = type: functional, cell-based;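 note: growth inhibition of human LB2518-MEL cells, measured with a cell viability assay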
Description: SANGER: Inhibition of human LB2518-MEL cell growth in a cell viability assay.

L-428 = type: functional, cell-based
Description: SANGER: Inhibition of human L-428 cell growth in a cell viability assay.

LC-2-ad = type: functional, cell-based;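 note: growth inhibition of human LC-2-ad cells, read out with a cell viability assay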
Description: SANGER: Inhibition of human LC-2-ad cell growth in a cell viability assay.

BV-173 = type: functional, cell-based
Description: SANGER: Inhibition of human BV-173 cell growth in a cell viability assay.

NCI-H2126 = type: functional, cell-based
Description: SANGER: Inhibition of human NCI-H2126 cell growth in a cell viability assay.

SK-N-FI = type: functional, cell-based
Description: SANGER: Inhibition of human SK-N-FI cell growth in a cell viability assay.

DMS-79 = type: functional, cell-based
Description: SANGER: Inhibition of human DMS-79 cell growth in a cell viability assay.

NCI-H1304 = type: functional, cell-based
Description: SANGER: Inhibition of human NCI-H1304 cell growth in a cell viability assay.

LAMA-84 = type: functional, cell-based
Description: SANGER: Inhibition of human LAMA-84 cell growth in a cell viability assay.

EC-GI-10 = type: functional, cell-based
Description: SANGER: Inhibition of human EC-GI-10 cell growth in a cell viability assay.

LU-139 = type: functional, cell-based
Description: SANGER: Inhibition of human LU-139 cell growth in a cell viability assay.

Calu-6 = type: functional, cell-based
Description: SANGER: Inhibition of human Calu-6 cell growth in a cell viability assay.

BB65-RCC = type: functional, cell-based
Description: SANGER: Inhibition of human BB65-RCC cell growth in a cell viability assay.

`CCn1c(-c2nonc2N)nc2cnc(Oc3cccc(NC(=O)c4ccc(OCCN5CCOCC5)cc4)c3)cc21` [GSK-269962A] was tested, and the pIC50 (TE-12) was < 5.60, the pIC50 (KALS-1) was < 5.60 and the pIC50 (IST-SL1) was 5.66. The pIC50 (COLO-824) was < 5.60, the pIC50 (SW872) was 6.05 and the pIC50 (DSH1) was < 5.60. For the same compound, the pIC50 (OS-RC-2) was < 5.60, the pIC50 (NB13) was 5.64 and the pIC50 (SW684) was < 5.60. The pIC50 (OCUB-M) was < 5.60, the pIC50 (GAK) was < 5.60 and the pIC50 (NCI-H510A) was < 5.60. The pIC50 (SK-N-DZ) was < 5.60, the pIC50 (EOL1) was < 5.60 and the pIC50 (KU812 cell line) was < 5.60. For the same compound, the pIC50 (MZ2-MEL) was < 5.60, the pIC50 (CAS-1) was 6.07 and the pIC50 (SK-UT-1) was < 5.60. The pIC50 (DEL) was < 5.60, the pIC50 (NCI-H1092) was < 5.60 and the pIC50 (SNB-75) was < 5.60. The pIC50 (COLO-829) was < 5.60, the pIC50 (no-10) was 6.17 and the pIC50 (RCC10RGB) was < 5.60. The pIC50 (MPP-89) was 5.90, the pIC50 (NCI-H226) was < 5.60 and the pIC50 (NCI-H82) was < 5.60. For the same compound, the pIC50 (ATN-1) was < 5.60, the pIC50 (HCC1187) was < 5.60 and the pIC50 (SHP77) was < 5.60. For the same compound, the pIC50 (HT-144) was < 5.60, the pIC50 (ETK-1) was < 5.60 and the pIC50 (RS4-11) was < 5.60. For the same compound, the pIC50 (DMS-114) was < 5.60, the pIC50 (MFM-223) was < 5.60 and the pIC50 (TGBC1TKB) was < 5.60. The pIC50 (CTV-1) was < 5.60, the pIC50 (NCI-H720) was 5.61 and the pIC50 (NH-12) was < 5.60. For the same compound, the pIC50 (NCI-H23) was < 5.60, the pIC50 (A3-KAW) was < 5.60 and the pIC50 (OVCAR-4) was < 5.60. The pIC50 (NCI-H1770) was < 5.60, the pIC50 (RH-1) was < 5.60 and the pIC50 (SCH) was < 5.60. The pIC50 (MC116) was < 5.60, the pIC50 (EW-24) was < 5.60 and the pIC50 (OCI-AML2) was < 5.60. For the same compound, the pIC50 (JVM-2) was < 5.60, the pIC50 (A498) was < 5.60 and the pIC50 (HAL-01) was < 5.60. For the same compound, the pIC50 (NCI-H1395) was < 5.60, the pIC50 (HD-MY-Z) was < 5.60 and the pIC50 (LB2518-MEL) was 5.77. The pIC50 (L-428) was < 5.60, the pIC50 (LC-2-ad) was < 5.60 and the pIC50 (BV-173) was < 5.60. For the same compound, the pIC50 (NCI-H2126) was < 5.60, the pIC50 (SK-N-FI) was < 5.60 and the pIC50 (DMS-79) was < 5.60. The pIC50 (NCI-H1304) was < 5.60, the pIC50 (LAMA-84) was < 5.60 and the pIC50 (EC-GI-10) was < 5.60. For the same compound, the pIC50 (LU-139) was < 5.60, the pIC50 (Calu-6) was < 5.60 and the pIC50 (BB65-RCC) was < 5.60.

With `CC(C)=CC[C@@H](O)C1=CC(=O)c2c(O)ccc(O)c2C1=O` [SHIKONIN] the pIC50 (TE-12) was 5.63, the pIC50 (KALS-1) was 5.88 and the pIC50 (IST-SL1) was < 4.80. The pIC50 (COLO-824) was 6.15, the pIC50 (SW872) was 6.43 and the pIC50 (DSH1) was 4.98. The pIC50 (OS-RC-2) was 6.50, the pIC50 (NB13) was 6.50 and the pIC50 (SW684) was 6.11. The pIC50 (OCUB-M) was 6.06, the pIC50 (GAK) was 5.98 and the pIC50 (NCI-H510A) was < 4.80. The pIC50 (SK-N-DZ) was 5.74, the pIC50 (EOL1) was 6.29 and the pIC50 (KU812 cell line) was > 7.20. The pIC50 (MZ2-MEL) was 6.41, the pIC50 (CAS-1) was 6.34 and the pIC50 (SK-UT-1) was > 7.20. The pIC50 (DEL) was 6.81, the pIC50 (NCI-H1092) was 5.86 and the pIC50 (SNB-75) was 6.13. The pIC50 (COLO-829) was 6.18, the pIC50 (no-10) was 6.54 and the pIC50 (RCC10RGB) was 5.81. The pIC50 (MPP-89) was 6.07, the pIC50 (NCI-H226) was 6.19 and the pIC50 (NCI-H82) was < 4.80. It also gave a pIC50 (ATN-1) of 6.07, a pIC50 (HCC1187) of 5.99 and a pIC50 (SHP77) of 6.35. For the same compound, the pIC50 (HT-144) was 6.25, the pIC50 (ETK-1) was 5.61 and the pIC50 (RS4-11) was 6.38. The pIC50 (DMS-114) was < 4.80, the pIC50 (MFM-223) was 6.05 and the pIC50 (TGBC1TKB) was 5.85. For the same compound, the pIC50 (CTV-1) was < 4.80, the pIC50 (NCI-H720) was < 4.80 and the pIC50 (NH-12) was 6.07. The pIC50 (NCI-H23) was < 4.80, the pIC50 (A3-KAW) was 5.67 and the pIC50 (OVCAR-4) was 6.17. For the same compound, the pIC50 (NCI-H1770) was 6.61, the pIC50 (RH-1) was 6.14 and the pIC50 (SCH) was < 4.80. The pIC50 (MC116) was 5.75, the pIC50 (EW-24) was 4.84 and the pIC50 (OCI-AML2) was 6.53. For the same compound, the pIC50 (JVM-2) was 5.41, the pIC50 (A498) was 7.09 and the pIC50 (HAL-01) was 6.71. For the same compound, the pIC50 (NCI-H1395) was < 4.80, the pIC50 (HD-MY-Z) was 6.33 and the pIC50 (LB2518-MEL) was 5.48. For the same compound, the pIC50 (L-428) was 5.92, the pIC50 (LC-2-ad) was 6.02 and the pIC50 (BV-173) was 6.36. For the same compound, the pIC50 (NCI-H2126) was 4.81, the pIC50 (SK-N-FI) was 5.11 and the pIC50 (DMS-79) was < 4.80. The pIC50 (NCI-H1304) was < 4.80, the pIC50 (LAMA-84) was 5.92 and the pIC50 (EC-GI-10) was < 4.80. For the same compound, the pIC50 (LU-139) was 5.20, the pIC50 (Calu-6) was 4.80 and the pIC50 (BB65-RCC) was 6.16.
